The text below walks through data of ChEMBL document CHEMBL5727860, “Bicyclic heteroaryl substituted compounds” (2020).

This test has as its target T1, Proteinase-activated receptor 4 (Homo sapiens, UniProt Q96RI0).
T1 sequence (Q96RI0 whole entry): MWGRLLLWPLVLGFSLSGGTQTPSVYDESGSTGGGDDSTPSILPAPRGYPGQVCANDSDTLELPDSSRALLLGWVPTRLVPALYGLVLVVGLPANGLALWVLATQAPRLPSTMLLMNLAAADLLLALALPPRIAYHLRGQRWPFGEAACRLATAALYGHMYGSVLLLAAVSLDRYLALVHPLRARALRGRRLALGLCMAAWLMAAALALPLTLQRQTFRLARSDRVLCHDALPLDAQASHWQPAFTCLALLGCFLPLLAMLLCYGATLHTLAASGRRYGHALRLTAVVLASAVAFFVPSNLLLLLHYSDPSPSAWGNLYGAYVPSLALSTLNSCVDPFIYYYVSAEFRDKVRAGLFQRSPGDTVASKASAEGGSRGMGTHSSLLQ
As to the kind of experiment: FLIPR Assay in PAR4-Expressing HEK293 Cells: FLIPR-based calcium mobilization assay in HEK293 cells was used to measure PAR4 antagonism agonism, and selectivity against PAR1. The activity of the PAR4 antagonists of the present invention were tested in PAR4 expressing cells by monitoring H-Ala-Phe(4-F)-[…]NH2-induced intracellular calcium mobilization. Counter screens for agonist activity and PAR1 antagonist activity were also performed. Briefly, PAR/PAR4-expressing HEK293 cells were grown in DMEM (Life Technology, Grand Island, N.Y.) containing 10% heat-inactivated FBS, 1% Penicillin-Streptomycin, 10 μg/mL blasticidin, and 100 μg/mL Zeocin at 37° C. with 5% CO2. Cells were plated overnight prior to the experiment in a black 384-well Purecoat Amine clear bottom plate (Becton Dickinson Biosciences, San Jose, Calif.) at 10,000 cells/well in 30 μL growth medium and incubated in a humidified chamber at 37° C. with 5% CO2 overnight. Prior to compound addition, the cell medium was replaced with 40 μL of 1× calcium and magnesium-containing Hank's Balanced Saline Solution (HBSS) (with 20 mM HEPES) and 1:1000 diluted fluorescent calcium indicator (Codex Biosolutions, Gaithersburg, Md.). […].

In the case of `COc1ccc(NC(=O)O[C@H]2CCNC[C@H]2Oc2cc3sc(-c4cc(C)cc5nc(OC)cnc45)nc3cc2F)cn1` (racemic), the IC50 is 980 nM.

For `COc1cnc2c(-c3nc4cc(F)c(O[C@@H]5CC(F)(F)C[C@@H]5OC(=O)Nc5cnc(OCCO)nc5)cc4s3)cc(C)cc2c1` (relative stereo), the IC50 stood at 20 nM.
